Each structure is given as a SMILES string.

The results in this text go back to paper PMC8217550, “ERRγ enhances cardiac maturation with T-tubule formation in human iPSC-derived cardiomyocytes” (Nature Communications, 2021).

The assay addresses T1, estrogen-related receptor gamma (ERRγ) (Homo sapiens, UniProt P62508).
T1 construct: gene ESRRG; His-tagged ERRγ LBD
T1 sequence (P62508 233-458 limits assumed): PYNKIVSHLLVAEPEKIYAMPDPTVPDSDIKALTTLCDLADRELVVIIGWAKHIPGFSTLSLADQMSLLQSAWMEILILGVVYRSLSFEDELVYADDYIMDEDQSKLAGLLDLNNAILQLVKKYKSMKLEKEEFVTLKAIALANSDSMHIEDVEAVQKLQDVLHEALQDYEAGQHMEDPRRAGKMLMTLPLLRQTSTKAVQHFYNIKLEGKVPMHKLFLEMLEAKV
T1 sequence (Q9UBK2 1-798 partner): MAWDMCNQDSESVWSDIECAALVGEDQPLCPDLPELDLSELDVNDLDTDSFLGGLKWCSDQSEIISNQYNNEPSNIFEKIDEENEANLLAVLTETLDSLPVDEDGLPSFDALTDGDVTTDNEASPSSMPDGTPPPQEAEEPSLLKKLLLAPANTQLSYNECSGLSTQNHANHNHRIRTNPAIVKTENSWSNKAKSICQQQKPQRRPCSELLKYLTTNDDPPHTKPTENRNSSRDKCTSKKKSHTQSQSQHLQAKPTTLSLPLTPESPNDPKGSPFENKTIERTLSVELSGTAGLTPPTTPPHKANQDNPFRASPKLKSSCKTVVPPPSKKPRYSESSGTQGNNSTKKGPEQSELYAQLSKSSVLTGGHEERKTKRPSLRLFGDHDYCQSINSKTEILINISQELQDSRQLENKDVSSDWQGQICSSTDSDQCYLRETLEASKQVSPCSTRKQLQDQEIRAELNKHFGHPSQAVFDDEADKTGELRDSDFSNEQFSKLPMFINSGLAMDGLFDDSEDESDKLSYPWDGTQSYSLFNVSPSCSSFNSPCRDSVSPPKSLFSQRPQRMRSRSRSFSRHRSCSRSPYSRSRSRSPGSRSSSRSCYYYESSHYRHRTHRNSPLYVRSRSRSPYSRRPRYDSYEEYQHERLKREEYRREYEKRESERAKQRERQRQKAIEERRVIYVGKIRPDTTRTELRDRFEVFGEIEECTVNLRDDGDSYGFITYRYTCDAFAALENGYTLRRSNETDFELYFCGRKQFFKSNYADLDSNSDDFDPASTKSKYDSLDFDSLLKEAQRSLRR
Kind of assay: LanthaScreen TR-FRET PGC1a coactivator-binding assay (agonist). It is filed as biochemical. (In general: TR-FRET usually uses a lanthanide donor and a delayed reading to cut background.)

For the compound `O=C1c2ccc(N3CCOCC3)cc2CN1c1ccc2[nH]c(-c3ccc(Br)cc3)nc2c1` [T112, 2-[2-(4-bromophenyl)-1H-benzimidazol-5-yl]-5-(morpholin-4-yl)-2,3-dihydro-1H-isoindol-1-one], the “LanthaScreen TR-FRET PGC1a coactivator-binding assay (agonist)” value is “to have ERRγ-agonistic activity with stronger effects than the commercially available ERRγ agonist GSK4716”.
